Measured values taken from patent publication US12264134B2 (Merck Sharp & Dohme LLC, priority 2018, dated 2025).

The molecules below were run against IDO1 (Homo sapiens, UniProt P14902) (assay: IDO1 Cellular Assay in HeLa Cells Stimulated with IFNγ). Conditions: read-out: HeLa Cell Potency, IC50.
Assay type: cell-based

Sequence of IDO1 (P14902 whole entry): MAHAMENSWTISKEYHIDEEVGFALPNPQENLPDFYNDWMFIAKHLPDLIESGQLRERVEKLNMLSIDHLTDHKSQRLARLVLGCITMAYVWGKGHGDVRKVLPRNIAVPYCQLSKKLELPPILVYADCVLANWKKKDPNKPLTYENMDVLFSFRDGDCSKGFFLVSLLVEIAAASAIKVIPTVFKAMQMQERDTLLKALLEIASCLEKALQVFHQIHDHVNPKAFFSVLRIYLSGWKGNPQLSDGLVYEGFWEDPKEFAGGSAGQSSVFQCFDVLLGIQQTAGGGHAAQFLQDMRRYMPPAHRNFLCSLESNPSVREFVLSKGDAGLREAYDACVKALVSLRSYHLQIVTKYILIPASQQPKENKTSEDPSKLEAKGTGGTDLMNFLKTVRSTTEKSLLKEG

Compound | IC50 [nM]
C[C@@H]1CN(C(=O)c2nn(CC(=O)N3CCN(c4ccc(F)c(F)c4F)CC3)c3c2CCC3)C[C@H](C)O1 [Example 70, 2-{3-[(2R,6S)-2,6-dimethylmorpholine-4-carbonyl]-5,6-dihydrocyclopenta[c]pyrazol-1(4H)-yl}-1-[4-(2,3,4-trifluorophenyl)piperazin-1-yl]ethan-1-one] | 235
Cc1cc(C)c(N2CCN(C(=O)Cn3nc(C(=O)N4C[C@@H](C)O[C@@H](C)C4)c4c3CCC4)CC2)cc1C [Example 71, 2-{3-[(2R,6S)-2,6-dimethylmorpholine-4-carbonyl]-5,6-dihydrocyclopenta[c]pyrazol-1(4H)-yl}-1-[4-(2,4,5-trimethylphenyl)piperazin-1-yl]ethan-1-one] | 145
CCc1ccccc1N1CCN(C(=O)Cn2nc(C(=O)N3C[C@@H](C)O[C@@H](C)C3)c3c2CCC3)CC1 [Example 72, 2-{3-[(2R,6S)-2,6-dimethylmorpholine-4-carbonyl]-5,6-dihydrocyclopenta[c]pyrazol-1(4H)-yl}-1-[4-(2-ethylphenyl)piperazin-1-yl]ethan-1-one] | 125
C[C@@H]1CN(C(=O)c2nn(CC(=O)N3CCN(c4ccc5c(c4)CCCO5)CC3)c3c2CCC3)C[C@H](C)O1 [Example 73, 1-[4-(3,4-dihydro-2H-1-benzopyran-6-yl)piperazin-1-yl]-2-{3-[(2R,6S)-2,6-dimethylmorpholine-4-carbonyl]-5,6-dihydrocyclopenta[c]pyrazol-1(4H)-yl}ethan-1-one] | 176
C[C@@H]1CN(C(=O)c2nn(CC(=O)N3CCN(c4cc(F)c(F)cc4F)CC3)c3c2CCC3)C[C@H](C)O1 [Example 74, 2-{3-[(2R,6S)-2,6-dimethylmorpholine-4-carbonyl]-5,6-dihydrocyclopenta[c]pyrazol-1(4H)-yl}-1-[4-(2,4,5-trifluorophenyl)piperazin-1-yl]ethan-1-one] | 289
Cc1ccc(F)cc1N1CCN(C(=O)Cn2nc(C(=O)N3C[C@@H](C)O[C@@H](C)C3)c3c2CCC3)CC1 [Example 75, 2-{3-[(2R,6S)-2,6-dimethylmorpholine-4-carbonyl]-5,6-dihydrocyclopenta[c]pyrazol-1(4H)-yl}-1-[4-(5-fluoro-2-methylphenyl)piperazin-1-yl]ethan-1-one] | 34.1
C[C@@H]1CN(C(=O)c2nn(CC(=O)N3CCN(c4cc(F)ccc4F)CC3)c3c2CCC3)C[C@H](C)O1 [Example 76, 1-[4-(2,5-difluorophenyl)piperazin-1-yl]-2-{3-[(2R,6S)-2,6-dimethylmorpholine-4-carbonyl]-5,6-dihydrocyclopenta[c]pyrazol-1(4H)-yl}ethan-1-one] | 439
Cc1c(F)cccc1N1CCN(C(=O)Cn2nc(C(=O)N3C[C@@H](C)O[C@@H](C)C3)c3c2CCC3)CC1 [Example 77, 2-{3-[(2R,6S)-2,6-dimethylmorpholine-4-carbonyl]-5,6-dihydrocyclopenta[c]pyrazol-1(4H)-yl}-1-[4-(3-fluoro-2-methylphenyl)piperazin-1-yl]ethan-1-one] | 18.3
C[C@@H]1CN(C(=O)c2nn(CC(=O)N3CCN(c4cccc(Cl)c4F)CC3)c3c2CCC3)C[C@H](C)O1 [Example 78, 1-[4-(3-chloro-2-fluorophenyl)piperazin-1-yl]-2-{3-[(2R,6S)-2,6-dimethylmorpholine-4-carbonyl]-5,6-dihydrocyclopenta[c]pyrazol-1(4H)-yl}ethan-1-one] | 38.2
C[C@@H]1CN(C(=O)c2nn(CC(=O)N3CCN(c4cccc5c4cnn5C)CC3)c3c2CCC3)C[C@H](C)O1 [Example 79, 2-{3-[(2R,6S)-2,6-dimethylmorpholine-4-carbonyl]-5,6-dihydrocyclopenta[c]pyrazol-1(4H)-yl}-1-[4-(1-methyl-1H-indazol-4-yl)piperazin-1-yl]ethan-1-one] | 83.1
C[C@@H]1CN(C(=O)c2nn(CC(=O)N3CCN(c4cccc5c4CCC5)CC3)c3c2CCC3)C[C@H](C)O1 [Example 80, 1-[4-(2,3-dihydro-1H-inden-4-yl)piperazin-1-yl]-2-{3-[(2R,6S)-2,6-dimethylmorpholine-4-carbonyl]-5,6-dihydrocyclopenta[c]pyrazol-1(4H)-yl}ethan-1-one] | 6.68
Cc1cccc(N2CCN(C(=O)Cn3nc(C(=O)N4CCC5(CC4)CN(C)C(=O)O5)c4c3CCC4)CC2)c1C [Example 81, 8-(1-(2-(4-(2,3-dimethylphenyl)piperazin-1-yl)-2-oxoethyl)-1,4,5,6-tetrahydrocyclopenta[c]pyrazole-3-carbonyl)-3-methyl-1-oxa-3,8-diazaspiro[4.5]decan-2-one] | 5.8
Cc1cccc(N2CCN(C(=O)Cn3nc(C(=O)N4CCC(C)(O)CC4)c4c3CCC4)CC2)c1C [Example 82, 1-[4-(2,3-dimethylphenyl)piperazin-1-yl]-2-[3-(4-hydroxy-4-methylpiperidine-1-carbonyl)-5,6-dihydrocyclopenta[c]pyrazol-1(4H)-yl]ethan-1-one] | 2.75
Cc1cccc(N2CCN(C(=O)Cn3nc(C(=O)N4CCC(=O)N(C)CC4)c4c3CCC4)CC2)c1C [Example 84, 1-(1-{2-[4-(2,3-dimethylphenyl)piperazin-1-yl]-2-oxoethyl}-1,4,5,6-tetrahydrocyclopenta[c]pyrazole-3-carbonyl)-4-methyl-1,4-diazepan-5-one] | 15.6
Cc1cccc(N2CCN(C(=O)Cn3nc(C(=O)N4CCN(C(=O)CO)CC4)c4c3CCC4)CC2)c1C [Example 85, 1-[4-(2,3-dimethylphenyl)piperazin-1-yl]-2-{3-[4-(hydroxyacetyl)piperazine-1-carbonyl]-5,6-dihydrocyclopenta[c]pyrazol-1(4H)-yl}ethan-1-one] | 26.5

Further lines, results first:

IC50 [nM] | Compound
4.12 | COC(=O)N1CCN(C(=O)c2nn(CC(=O)N3CCN(c4cccc(C)c4C)CC3)c3c2CCC3)CC1 [Example 86, methyl 4-(1-{2-[4-(2,3-dimethylphenyl)piperazin-1-yl]-2-oxoethyl]-1,4,5,6-tetrahydrocyclopenta[c]pyrazole-3-carbonyl)piperazine-1-carboxylate]
13.2 | Cc1cccc(N2CCN(C(=O)Cn3nc(C(=O)N4CC5CC4CC5O)c4c3CCC4)CC2)c1C (stereo not drawn) [Example 96, 1-[4-(2,3-dimethylphenyl)piperazin-1-yl]-2-[3-(5-hydroxy-2-azabicyclo[2.2.1]heptane-2-carbonyl)-5,6-dihydrocyclopenta[c]pyrazol-1(4H)-yl]ethan-1-one]
17.1 | Cc1cccc(N2CCN(C(=O)Cn3nc(C(=O)N4CC[C@H](O)[C@H](F)C4)c4c3CCC4)CC2)c1C [Example 97, 1-[4-(2,3-dimethylphenyl)piperazin-1-yl]-2-{3-[(3R,4S)-3-fluoro-4-hydroxypiperidine-1-carbonyl]-5,6-dihydrocyclopenta[c]pyrazol-1(4H)-yl}ethan-1-one]
12.4 | Cc1cccc(N2CCN(C(=O)Cn3nc(C(=O)N4CC[C@@H](O)[C@@H](F)C4)c4c3CCC4)CC2)c1C [Example 98, 1-[4-(2,3-dimethylphenyl)piperazin-1-yl]-2-{3-[(3S,4R)-3-fluoro-4-hydroxypiperidine-1-carbonyl]-5,6-dihydrocyclopenta[c]pyrazol-1(4H)-yl}ethan-1-one]
3.19 | Cc1cccc(N2CCN(C(=O)Cn3nc(C(=O)N4CC[C@H](O)[C@H](C)C4)c4c3CCC4)CC2)c1C [Example 99, 1-[4-(2,3-dimethylphenyl)piperazin-1-yl]-2-{3-[(3R,4S)-4-hydroxy-3-methylpiperidine-1-carbonyl]-5,6-dihydrocyclopenta[c]pyrazol-1(4H)-yl}ethan-1-one]
10.7 | Cc1cccc(N2CCN(C(=O)Cn3nc(C(=O)N4C[C@H]5CC[C@H](O)[C@H]5C4)c4c3CCC4)CC2)c1C [Example 100, 1-[4-(2,3-dimethylphenyl)piperazin-1-yl]-2-{3-[(3aR,4S,6aS)-4-hydroxyhexahydrocyclopenta[c]pyrrole-2(1H)-carbonyl]-5,6-dihydrocyclopenta[c]pyrazol-1(4H)-yl}ethan-1-one]
4.38 | Cc1cccc(N2CCN(C(=O)Cn3nc(C(=O)N4CCC(F)(CO)CC4)c4c3CCC4)CC2)c1C [Example 102, 1-[4-(2,3-dimethylphenyl)piperazin-1-yl]-2-{3-[4-fluoro-4-(hydroxymethyl)piperidine-1-carbonyl]-5,6-dihydrocyclopenta[c]pyrazol-1(4H)-yl}ethan-1-one]
18.3 | Cc1cccc(N2CCN(C(=O)Cn3nc(C(=O)N4CCOC(CO)C4)c4c3CCC4)CC2)c1C (stereo not drawn) [Example 103, 1-[4-(2,3-dimethylphenyl)piperazin-1-yl]-2-{3-[2-(hydroxymethyl)morpholine-4-carbonyl]-5,6-dihydrocyclopenta[c]pyrazol-1(4H)-yl}ethan-1-one]
49.6 | Cc1cccc(N2CCN(C(=O)Cn3nc(C(=O)N4CC[C@@H](O)[C@@H](O)C4)c4c3CCC4)CC2)c1C [Example 104, 2-{3-[(3S,4R)-3,4-dihydroxypiperidine-1-carbonyl]-5,6-dihydrocyclopenta[c]pyrazol-1(4H)-yl}-1-[4-(2,3-dimethylphenyl)piperazin-1-yl]ethan-1-one]
34.5 | Cc1cccc(N2CCN(C(=O)Cn3nc(C(=O)N4CC5CCC4CO5)c4c3CCC4)CC2)c1C (stereo not drawn) [Example 105, 1-[4-(2,3-dimethylphenyl)piperazin-1-yl]-2-[3-(2-oxa-5-azabicyclo[2.2.2]octane-5-carbonyl)-5,6-dihydrocyclopenta[c]pyrazol-1(4H)-yl]ethan-1-one]
5.39 | Cc1cccc(N2CCN(C(=O)Cn3nc(C(=O)N4CCC5(CC4)CC5(F)F)c4c3CCC4)CC2)c1C [Example 110, 2-[3-(1,1-difluoro-6-azaspiro[2.5]octane-6-carbonyl)-5,6-dihydrocyclopenta[c]pyrazol-1(4H)-yl]-1-[4-(2,3-dimethylphenyl)piperazin-1-yl]ethan-1-one]
28.6 | Cc1cccc(N2CCN(C(=O)Cn3nc(C(=O)N4CCC(O)(c5ccccc5)CC4)c4c3CCC4)CC2)c1C [Example 111, 1-[4-(2,3-dimethylphenyl)piperazin-1-yl]-2-[3-(4-hydroxy-4-phenylpiperidine-1-carbonyl)-5,6-dihydrocyclopenta[c]pyrazol-1(4H)-yl]ethan-1-one]
